Source: patent US10947237B2, “Antimicrobial compounds and methods of making and using the same” (BIOVERSYS AG, priority 2015, dated 2021)

Columns and labels:
[1] = system: Eschericia coli (E. Coli) strain ATCC25922; test: standard microdilution assay, minimum inhibitory concentration (MIC); assay type: cell-based; conditions: Escherichia coli
Protocol: (§1) The in vitro activity of the compounds of the present disclosure can be determined. Antimicrobial testing is typically performed to determine the minimum inhibitory concentration (MIC). Minimum inhibitory concentrations (MICs) are determined by the microdilution method in a final volume of 100 μl according to protocols outlined by The Clinical and Laboratory Standards Institute (CLSI). Performance standards for reference strains are assessed within the same experimental design to maintain quality control. See, for example, Clinical Laboratory Standards Institute: Methods for dilution antimicrobial susceptibility tests for bacteria that grow aerobically M7-A8. Approved Standard-Eighth Edition. Wayne, Pa.: CLSI; December 2008; and Clinical Laboratory Standards Institute: Performance Standards for Antimicrobial Susceptibility Testing M100-S20; Approved Standard-Twentieth Edition. Wayne, Pa.: CLSI; June 2010. The compounds of the present disclosure were tested for antimicrobial activity. The Compounds 1-149 were run against Eschericia coli (E. Coli) strain ATCC25922 and against Staphylococcus aureus (S. aureus) 11540 strain using a standard microdilution assay to determine minimum inhibitory concentrations (MICs). […] It will be recognized by one skilled in the art that the compounds can be assessed against other bacterial organisms and that the presentation of data for activity against Eschericia coli and Staphylococcus aureus are illustrative and in no way is intended to limit the scope of the present disclosure. The compounds of the present disclosure can be assayed against a range of other microorganisms depending upon the performance activity desired to be gathered. Furthermore, the “+” and “−” representation and the selection of a cutoff value of 16 micrograms/mL is also illustrative and in no way is intended to limit the scope of the present disclosure.

[2] = system: Staphylococcus aureus (S. aureus) 11540 strain; test: as above; assay type: cell-based
Protocol: as §1

Row | SMILES | MIC ([1]; Table 2, strain ATCC25922) [µg/mL] | MIC ([2]; Table 2, 11540 strain) [µg/mL] | MIC ([1]; ATCC25922, Table 2a) [µg/mL] | MIC ([2]; Table 2a) [µg/mL]
1 | C[C@H](N)CCCc1cc(Cl)c(F)c(-c2cc3cn(-c4ccc(CO[C@H](CCNC(N)=O)CNC(=N)N)cc4)c(=O)nc3[nH]2)c1 [Compound 170] |  |  | ≤ 16 | ≤ 16
2 | N=C(N)NCC[C@@H]1C[C@@H](Nc2nccs2)C[C@@H](c2ccc(-n3cc4cc(C5CCNC5)[nH]c4nc3=O)cc2)O1 (stereo partly shown) [Compound 125] | > 16 | > 16 |  | 
3 | C[C@H](N)CCCc1cc(Cl)c(F)c(-c2cc3cn(-c4ccc([C@@H]5C[C@@H](Nc6nccs6)C[C@@H](CCNC(=N)N)O5)cc4)c(=O)nc3[nH]2)c1 [Compound 123] | > 16 | ≤ 16 |  | 
4 | CC(=N)NCC[C@H](CNC(C)=N)OCc1ccc(-n2cc3cc(-c4cc(CCC[C@H](C)N)cc(Cl)c4F)[nH]c3nc2=O)cc1 [Compound 169] |  |  | ≤ 16 | ≤ 16
5 | CC(=N)NCC[C@H](CN)OCc1ccc(-n2cc3cc(-c4cc(CCC[C@H](C)N)cc(Cl)c4F)[nH]c3nc2=O)cc1 [Compound 176] |  |  | ≤ 16 | ≤ 16
6 | Cc1nc(NC[C@@H](CCNC(=N)N)NCc2ccc(-n3cc4cc(-c5cc(CCC[C@H](C)N)cc(Cl)c5F)[nH]c4nc3=O)cc2)sc1C [Compound 50] | ≤ 16 | ≤ 16 |  | 
7 | N=C(N)NCC[C@H](CNc1ncc[nH]1)OCc1ccc(-n2cc3cc(C4CCNC4)[nH]c3nc2=O)cc1 (stereo partly shown) [Compound 113] | ≤ 16 | > 16 |  | 
8 | N=C(N)NCC[C@H](CNC(=N)N)OCc1ccc(-n2cc3cc(-c4cc(CCC[C@@H](N)C5CC5)cc(Cl)c4F)[nH]c3nc2=O)cc1 [Compound 164] |  |  | ≤ 16 | ≤ 16
9 | C[C@H](N)CCCc1cc(Cl)c(F)c(-c2cc3cn(-c4ccc([C@@H]5CCC[C@@H](CCN6CCOC6=O)N5)cc4)c(=O)nc3[nH]2)c1 [Compound 20] | > 16 | > 16 |  | 
10 | C[C@H](N)CCCc1cc(Cl)c(F)c(-c2cc3cn(-c4ccc(CO[C@H](CCNC(=N)N)CNc5ccccn5)cc4)c(=O)nc3[nH]2)c1 [Compound 75] | ≤ 16 | ≤ 16 |  | 

More lines, now with the values ahead:

Row | MIC ([1]; Table 2, strain ATCC25922) [µg/mL] | MIC ([2]; Table 2, 11540 strain) [µg/mL] | MIC ([1]; ATCC25922, Table 2a) [µg/mL] | MIC ([2]; Table 2a) [µg/mL] | SMILES
11 | ≤ 16 | ≤ 16 |  |  | Cc1nc(NCC[C@H]2CCC[C@H](c3ccc(-n4cc5cc(-c6cc(CCC[C@H](C)N)cc(Cl)c6F)[nH]c5nc4=O)cc3)N2)[nH]c1C [Compound 41]
12 | ≤ 16 | ≤ 16 |  |  | C[C@H](N)CCCc1cc(Cl)c(F)c(-c2cc3cn(-c4ccc([C@H]5CC(NC6=NCCN6)C[C@H](CCNC6=NCCN6)O5)cc4)c(=O)nc3[nH]2)c1 (stereo partly shown) [Compound 138]
13 | ≤ 16 | ≤ 16 |  |  | CC(=O)CNCC[C@@H]1CCC[C@@H](c2ccc(-n3cc4cc(-c5cc(CCC[C@H](C)N)cc(Cl)c5F)[nH]c4nc3=O)cc2)N1 [Compound 9]
14 | ≤ 16 | ≤ 16 |  |  | C[C@H](N)CCCc1cc(Cl)c(F)c(-c2cc3cn(-c4ccc(CN[C@H](CCNC(=N)N)CCc5cnc(N)s5)cc4)c(=O)nc3[nH]2)c1 [Compound 24]
15 | ≤ 16 | ≤ 16 |  |  | C[C@H](N)CCCc1cc(Cl)c(F)c(-c2cc3cn(-c4ccc([C@H]5CCC[C@H](CCNC6=NCCC6)N5)cc4)c(=O)nc3[nH]2)c1 [Compound 29]
16 | ≤ 16 | ≤ 16 |  |  | C[C@H](N)CCCc1cc(Cl)c(F)c(-c2cc3cn(-c4ccc(CO[C@@H](CF)CCNC(=N)N)cc4)c(=O)nc3[nH]2)c1 [Compound 135]
17 | ≤ 16 | ≤ 16 |  |  | N=C(N)NCC[C@H](CNc1ncc[nH]1)OCc1ccc(-n2cc3cc(CCNC4CCNCC4)[nH]c3nc2=O)cc1 [Compound 104]
18 | ≤ 16 | > 16 |  |  | O=c1nc2[nH]c(C3CCNC3)cc2cn1-c1ccc([C@@H]2CCC[C@@H](CCNc3ncc[nH]3)N2)cc1 (stereo partly shown) [Compound 94]
19 | ≤ 16 | ≤ 16 |  |  | CCNC[C@@H](CCNC(=N)N)NCc1ccc(-n2cc3cc(-c4cc(CCC[C@H](C)N)cc(Cl)c4F)[nH]c3nc2=O)cc1 [Compound 30]
20 | ≤ 16 | ≤ 16 |  |  | C[C@H](N)CCCC1CC(c2cc3cn(-c4ccc([C@H](C)NCCCNC(=N)N)cc4)c(=O)nc3[nH]2)CCN1 (stereo partly shown) [Compound 152]
